“Also recorded” adds a separate entry of the source.
Columns and labels:
HL-1 cells = format: cell-based
Method: Cell Viability Assays—Cell viability was assessed using the ApoTox-Glo Triplex Assay (Promega, Madison, Wis.) per manufacturer's instructions. Briefly, HL-1 cells were seeded in 96 well plates at a density of 1×10^4 cells/well and allowed to grow overnight in Claycomb media supplemented with 10% FBS, 100 U/ml penicillin/streptomycin, and 2 mM L-glutamine. […] GF-AFC viability was then added to ApoTox-Glo Assay Buffer at a ratio of 10 μl GF-AFC to 2.0 ml Assay Buffer and 20 μl of this mixture was added to each well and cells were incubated at 37° C. for 30 minutes. Fluorescence was measured at 400 nm (ex)/505 nm (em) and the data was normalized to untreated control cells.

[1] = tested on: isolated ventricular myocytes; experiment: Myocyte Ca2+ transient and cytosolic Ca2+ measurement; format: cell-based, mouse
Method: Isolation of ventricular myocytes—Hearts from WT mice (12-week old) were perfused on the Langendorff system with a modified Krebs-Henseleit buffer (KHB) composed of (mM) NaCl 118, KCl 5.4, HEPES 10, NaH2PO4 0.33, MgCl2 2, glucose 10, taurine 30, butanedione monoxime 10 (pH=7.4). Then an enzyme solution (KHB containing 0.7 mg/ml type II collagenase, 0.1% BSA and 25 μM CaCl2) was used to digest the hearts for 10 min. Finally, ventricles of the hearts were excised, minced and filtered to obtain isolated cells. After sufficient sedimentation, the supernatant was removed and the cells were resuspended.
Myocyte Ca^2+ transient and cytosolic Ca^2+ measurement—Myocytes were loaded with Fluo-4 acetoxymethyl ester (7 μM) for 20 min at room temperature, followed by a 10 min wash with Tyrode's solution, and then placed onto a plexiglass chamber for recording. For Ca^2+ transient measurements, myocytes were excited under 0.5 Hz and 3 Hz field stimulation, and the fluorescence signals were obtained using a Nikon TE 2000 microscope and collected through an InCyt Standard photometry system. For cytosolic Ca^2+ analysis in quiescent myocytes, a Zeiss LSM 510 confocal microscope was used to record fluorescent images from resting myocytes. Line-scan mode was applied at 3.07 ms intervals with 512 pixels spaced at 0.056 μm. Drugs were dissolved in Tyrode's solution and perfused into the chamber. Images of myocytes were recorded every 30 s after drug application. Data analysis was performed using Clampfit 9.2 and Image J 1.44 software.
Water soluble probenecid was used for all of the myocyte experiments.

[2] = tested on: isolated ventricular myocytes; experiment: Myocyte contractility measurement; format: cell-based, mouse; conditions: ruthenium red pretreatment, 10^−7 M probenecid
Method: Isolation of ventricular myocytes—Hearts from WT mice (12-week old) were perfused on the Langendorff system with a modified Krebs-Henseleit buffer (KHB) composed of (mM) NaCl 118, KCl 5.4, HEPES 10, NaH2PO4 0.33, MgCl2 2, glucose 10, taurine 30, butanedione monoxime 10 (pH=7.4). Then an enzyme solution (KHB containing 0.7 mg/ml type II collagenase, 0.1% BSA and 25 μM CaCl2) was used to digest the hearts for 10 min. Finally, ventricles of the hearts were excised, minced and filtered to obtain isolated cells. After sufficient sedimentation, the supernatant was removed and the cells were resuspended. Myocyte contractility measurement—Myocytes were put on a plexiglass chamber containing a Tyrode's solution composed of (mM) NaCl 140, KCl, 5.4, MgCl2 1, CaCl2 1.8, HEPES 5, glucose 10 (pH=7.4). Myocytes were excited under 0.5 Hz field stimulation. After reaching the steady state, myocyte shortening and the rates of shortening (+dL/dt) and relengthening (−dL/dt) were imaged with a CCD camera and monitored by a video-edge detector. Drugs were dissolved in Tyrode's solution and perfused into the chamber. Data were continuously collected through the PCLAMP 9 software. Water soluble probenecid was used for all of the myocyte experiments.

CC(C)NCC(O)c1ccc(O)c(O)c1 (stereo not shown) [isoproterenol]
cell death at 24 hours, compared with H2O2 positive control (HL-1 cells; 1.0 mM, 24 hours): substantial cell death; also recorded: indistinguishable from H2O2 positive controls
cells still viable (HL-1 cells; 1.0 mM, 24 hours): less than 20%
cell death (HL-1 cells; 1.0 mM, after 4 and 8 hours of treatment): significant amount of cell death
cell death in HL-1 cells (Example 3 summary) (HL-1 cells; probenecid at supraphysiological, isoproterenol at clinically relevant concentrations): increased cell death

C/C=C(/C)C(=O)O[C@H]1C(C)=C2[C@H]([C@@H]1OC(=O)CCCCCCC)[C@@](C)(OC(C)=O)C[C@H](OC(=O)CCC)[C@@]1(O)[C@H]2OC(=O)[C@@]1(C)O [thapsigargin]
effect on the change in cytosolic Ca2+ by probenecid ([1]; thapsigargin 10^−6 M pretreatment 15 minutes, 10^−7 M probenecid): abolished

N.N.N.N.N.N.N.N.N.N.N.N.N.N.[Cl-].[Cl-].[Cl-].[Cl-].[Cl-].[Cl-].[O-2].[O-2].[Ru+3].[Ru+3].[Ru+4] [ruthenium red]
effect of pretreatment on probenecid's effect on myocyte contractility [2]: completely abolished
effect on the increase of cytosolic Ca2+ by probenecid ([1]; ruthenium red 1 μM applied, 0.1 μM probenecid): fully blocked
